Patent publication US4888345A, “4,8-disubstituted-1,2-dihydro and 1,2,3,4-tetrahydroimidazo-[1,5-a] pyrimidines” (American Cyanamid Company, priority 1988, dated 1989)

Columns and labels:
[1] = system: Spontaneously Hypertensive Rats; experiment: Hypotensive activity: reduction of mean arterial blood pressure in spontaneously hypertensive rats (method of Chan and Poorvin); assay type: in vivo; details: gavage, two doses of 100 mg/kg or less 24 hours apart; measured 28 hours after initial dose; average MABP of the rats used 160±1.5 mm Hg
Protocol: Certain of the novel compounds of the present invention are active hypotensive agents at nontoxic doses when administered to mammals. These compounds were tested for hypotensive activity by the method of P. S. Chan and D. Poorvin, Clinical and Experimental Hypertension, 1(6), 817-830 (1979). Male, 16 week old, spontaneously hypertensive rats of the Okamoto strain having an average mean arterial blood pressure of 160±1.5 mm of mercury are used in the test. One to 3 rats are used per test compound. A rat is dosed by gavage with a test compound, suspended in 2% pre-boiled starch at a concentration of 50 mg/ml, at a dose of 100 mg/kg of body weight or less, with 0.9% sodium chloride loading at a dose of 25 ml/kg of body weight. A second identical dose of the test compound, without sodium chloride loading is given 24 hours later. At 28 hours after the initial dose the mean arterial blood pressure is measured by the method of Chan and Poorvin vide supra. The procedure is repeated in a second and third rat when necessary.

[2] = system: Brain-Specific Receptors of Rats (3H-benzodiazepine binding); experiment: Inhibition of the binding of 3H-benzodiazepine to brain-specific receptors of rats (antianxiety); set-up: species or system rat (Wistar strain); details: rat cortex P2-synaptosomal fraction; 3H-diazepam (1.5 nM) or 3H-flunitrazepam (1.0 nM); 30 minutes in ice, pH 7.4; test concentration not given
From the text: The antianxiety properties of certain of the novel compounds of the present invention have been establish in a test which measures the ability of a test compound to inhibit the binding of tritiated benzodiazepines to brain-specific receptors of mammals. A modification of the method described by R. F. Squires, et al., Nature, 266, No. 21, pg 732 (April 1977) and H. Mohler, et al., Science, 198:849 (1977) was employed.
Male albino rats (Wistar strain, weighing 150 g 200 g each) were used. The test compounds were solubilized in dimethylformamide, acetic acid, ethanol or hydrochloric acid.
Whole cortex of rats was homogenized gently in 20 volumes of ice-cold 0.32 M sucrose, centrifuged twice at 1000 g for 10 minutes and then recentrifuged at 30,000 g for 20 minutes to produce a crude P2 -synaptosomal fraction. […]
The binding assay consisted of 300 μl of the P2 -fraction suspension (0.2-0.4 mg protein), 100 μl of test drug and 100 μl of ^3 H-diazepam (1.5 nM, final concentration) or ^3 H-flunitrazepam (1.0 nM, final concentration) which was added to 1.5 ml of 50 mM Tris.HCl (pH 7.4). […] After drying at 50°-60° C. for 30 minutes, 10 ml of diluent was added and the radioactivity determined in a scintillation counter.
Inhibition of binding was calculated by the difference between total binding and binding in the presence of test compound, divided by the total binding, ×100. […]

Row | Structure (SMILES) | MABP/mm Hg (mean arterial blood pressure after dosing) [1] [mm Hg] | % Inhibition of 3H-benzodiazepine binding [2] [%]
1 | NC(=O)c1ncn2c1NCC=C2c1cccc(C(F)(F)F)c1 [Example 26, 1,2-Dihydro-4-[3-(trifluoromethyl)phenyl]imidazo-[1,5-a]pyrimidine-8-carboxamide] | 111 | 
2 | NC(=O)c1ncn2c1NCC=C2c1cccc(Cl)c1 [Example 27, 4-(3-Chlorophenyl)-1,2-dihydroimidazo[1,5-a]-pyrimidine-8-carboxamide] | 132 | 
3 | NC(=O)c1ncn2c1NCC=C2c1cc(Cl)ccc1Cl [Example 28, 4-(2,5-Dichlorophenyl)-1,2-dihydroimidazo[1,5-a]-pyrimidine-8-carboxamide] | 106 | 
4 | NC(=O)c1ncn2c1NCC=C2c1ccccc1 [Example 29, 1,2-Dihydro-4-phenylimidazo[1,5-a]-pyrimidine-8-carboxamide] | 121 | 
5 | COc1cccc(C2=CCNc3c(C(N)=O)ncn32)c1 [Example 30, 1,2-Dihydro-4-(3-methoxyphenyl)-imidazo[1,5-a]pyrimidine-8-carboxamide] |  | 27
6 | NC(=O)c1ncn2c1NCC=C2c1cccc([N+](=O)[O-])c1 [Example 35, 1,2-Dihydro-4-(3-nitrophenyl)imidazo-[1,5-a]pyrimidine-8-carboxamide] | 139 | 
7 | NC(=O)c1ncn2c1NCC=C2c1cccnc1 [Example 37, 1,2-Dihydro-4-(3-pyridinyl)imidazo-[1,5-a]pyrimidine-8-carboxamide] | 138 | 
8 | NC(=O)c1ncn2c1NCC=C2c1ccc(N2CCOCC2)cc1 [Example 38, 1,2-Dihydro-4-[4-(4-morpholinyl)-phenyl]imidazo[1,5-a]pyrimidine-8-carboxamide] |  | 29
